Experimental data reported in patent US12611387B2, “Compound and composition for inducing neuroprotection” (REST THERAPEUTICS, priority 2020, dated 2026).

Experiments:
Bax and Bcl-2 = Bax and Bcl-2 ELISA in hippocampus, Aβ25-35 oligomer neuroprotection design; assay type: in vivo, mice; details: 0.3 mg/Kg; for Bax protein levels in the hippocampus: compared to the intoxicated, untreated group (not shown)
Experimental: (§1) The neuroprotective effect of the compounds, i.e. the ability thereof to protect cells from Aβ25-35 oligomer neurotoxicity and neurodegeneration, is also tested (FIG. 10). The test compounds are thus administered on the same day as the injection of the Aβ25-35 oligomers and are continued to be administered on a daily basis up to day 7 after the injection of the oligomers, at which time the mice are subjected to the YMT, PAT, MWT or ORT. The brain's anatomy is analysed and neuronal cells are counted by immunohistochemistry on mice sacrificed at D13. The biochemical analyses for the quantification of markers of oxidative stress and apoptosis were carried out at D16 on a group of mice that had been subjected to the WMT (FIG. 10).
Their brains were removed, and the hippocampi were isolated, weighed and frozen at −80° C. awaiting biochemical analysis.
Interleukin 6 (IL-6), a cytokine inflammatory marker, and the levels of the apoptosis markers Bcl2 and Bax proteins were measured in mouse hippocampi by the ELISA tests listed in Table 1 hereinbelow. Bcl2 is often referred to as an anti-apoptotic marker and Bax as a pro-apoptotic marker. Both hippocampi of 6-8 animals per condition were used. The tissues were homogenised after thawing in cell lysis buffer (1 mL, 3 IS007, Cloud-Clone) and sonicated on ice (2×10 s). After centrifugation (10,000 g, 5 min, 4° C.), the supernatants containing the markers to be measured were aliquoted and stored at −80° C. until the ELISA test was carried out according to the supplier's instructions. The results are expressed in ng of marker per mg of total protein and as a percentage of the control (mice not intoxicated with Aβ25-35 and not treated with the test compounds).

Iba-1 = test: Immunohistochemical quantification of Iba-1 (microgliosis); assay type: in vivo, mice; details: 0.3 mg/Kg i.p.
Experimental: as §1
They were previously anaesthetised by i.p. injection of 200 μL of a solution of ketamine (80 mg/Kg) and xylazine (10 mg/Kg), then the tissues were fixed by intracardiac perfusion of 50 mL of a saline solution followed by 50 mL of Antigenfix® fixative (Diapath). The samples were kept for a further 48 hours in the fixative at 4° C., and then the mouse brains were stored in a 30% sucrose solution in PBS, before being sliced.
Slices were taken of each area of the brain, in particular the cortex, the nucleus basalis magnocellularis and the hippocampus (i.e. between bregma +1.8 and bregma −2.8 according to the stereotaxic coordinates of the mouse brain, Paxinos et al., 2004). Serial coronal sections with a thickness of 25 μm were cut with a freezing microtome (Microm HM 450, Thermo Fisher) and stored at −20° C. in a cryoprotective solution. […]
Immunohistochemical labelling is carried out in a conventional manner. […] After rinsing with PBS, the sections were mounted in a mounting fluid (ProLong, ThermoFischer) and images of each section were taken with a confocal fluorescence microscope (Leica SPE) for different sub-regions of the hippocampus such as the stratum radiatum (Rad), the stratum moleculare (Mol), the polymorphic layer of the dentate gyrus (PoDG) and for the cortex, the lateral parietal association area (LPtA). […]

non-intoxicated mice = test: Y-maze, amnestic effect in non-intoxicated mice; assay type: in vivo; details: 10 mg/Kg i.p.
Experimental: The spontaneous alternation test was used to assess spatial working memory (very short-term memory) in rodents. The maze was made of grey opaque polyvinylchloride (PVC). Each arm was 40 cm long, 13 cm high, 3 cm wide at the bottom, and 10 cm wide at the top. The arms converged towards one another at an equal angle between the different arms. In brief, each mouse was placed at the end of one arm and allowed to move freely during an 8 min session. The mouse's entries into each arm, including the arm at whose end it was placed, are recorded. An alternation is defined as the animal's successive entry into three different arms. The number of maximum alternations is thus the total number of entries into each arm minus 2 and the percentage of alternation was calculated according to the formula: % Alt=number of actual alternations/maximum number of alterations×100
The parameters measured included the percentage of alternations (memory index) and the total number of entries into the arms of the maze (exploration index, Maurice et al., 1994, 1996; Meunier et al., 2006, 2013; Villard et al., 2009, 2011). Data from the animals showing extreme behaviour (percentage of alternation <25% or >90%, or a number of entries less than 10) were excluded from the calculations. The attrition rate was routinely 5%. Under normal conditions, a mouse will spontaneously alternate exploring each of the arms. A mouse with impaired memory and/or orientation abilities will have a lower percentage of alternations.
In this experiment, memantine and FENM were administered at a dose of 10 mg/Kg i.p. and the performance of the mice was tested using the passive avoidance test and the Y-maze with non-intoxicated mice.

NMDA receptors = details: described in WO 2014/191424; cited from earlier work

SMILES | Bax/Bcl-2 ratio in the hippocampus (Bax and Bcl-2) | Bax protein levels in the hippocampus (Bax and Bcl-2) | Iba-1 labelling (microglial response) (Iba-1; all brain areas tested (Rad, Mol, PoDG, LPtA)) | Alternation (%) (non-intoxicated mice) | Number of entries (non-intoxicated mice) | affinity for NMDA receptors (NMDA receptors) | Iba-1 labelling (microglial response) (Iba-1; PoDG area) | Iba-1 labelling (microgliosis) (Iba-1; cortex (LPtA))
NC12CC3CC(C1)CC(CCF)(C3)C2 [FENM, 3-(2-fluoroethyl)adamantan-1-amine] | significantly decreased the Bax/BcI-2 ratio | significantly reduced | significantly decreases the astrocytic and microglial response in all of the brain areas tested | 63.7 ± 4.2 | 32.7 ± 3.4 | of an order of magnitude that is similar to that of memantine | – | –
CC12CC3CC(C)(C1)CC(N)(C3)C2 [memantine, 3,5-Dimethyl-1-adamantanamine, reference compound] | – | significantly reduced | – | 48.8 ± 3.0 | 28.2 ± 2.9 | – | positive effect in the PoDG area | no effect
